US20240174603A1 (Rappta Therapeutics Oy, priority 2021, published 2024)

What follows are compounds tested on LNCaP cells (assay: LNCaP cell viability assay (MTS)). Conditions: Homo sapiens, LNCaP cell line, 48 hours.
Type: cell-based
Method in brief: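 GI50 derived by nonlinear four-parameter curve fitting (bottom fixed at zero) of MTS viability data. Prostate LNCaP cells seeded at 5000/well were given compound doses from 1 to 80 µM one day after plating and assayed after 48 h of exposure.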

Row | Compound | GI50 [µM]
1 | CN(C)CC(NS(=O)(=O)c1cccc(OC(F)(F)F)c1[N+](=O)[O-])c1ccc(Cl)c(Cl)c1 (stereo not shown) [Compound 223, N-(1-(3,4-dichlorophenyl)-2-(dimethylamino)ethyl)-2-nitro-3-(trifluoromethoxy)benzenesulfonamide] | 57.4

Same assay, conditions: Homo sapiens, LNCaP, 48 h, LNCaP cell line

Row | GI50 [µM] | Compound
2 | 43.1 | CN(C)CC(NS(=O)(=O)c1ccc(OC(F)(F)F)cc1)c1ccc(Cl)cc1 (single isomer, unassigned) [Compound 179, N-(1-(4-chlorophenyl)-2-(dimethylamino)ethyl)-4-(trifluoromethoxy)benzenesulfonamide]
3 | 52.7 | CN(C)CC(NS(=O)(=O)c1cccc(C(F)(F)F)c1)c1ccc(Cl)c(Cl)c1 (stereo not shown) [Compound 162, N-(1-(3,4-dichlorophenyl)-2-(dimethylamino)ethyl)-3-(trifluoromethyl)benzenesulfonamide]
4 | 49 | CCOC(=O)CC(NS(=O)(=O)c1ccc(OC(F)(F)F)cc1)c1cccc(Br)c1 (stereo not shown) [Compound 46, Ethyl 3-(3-bromophenyl)-3-((4-(trifluoromethoxy)phenyl)sulfonamido)propanoate]
5 | 25.4 | CC(C)Oc1ccc(S(=O)(=O)NC(CN(C)C)c2ccc(Cl)c(Cl)c2)cc1 (stereo not shown) [Compound 208, N-(1-(3,4-dichlorophenyl)-2-(dimethylamino)ethyl)-4-isopropoxybenzenesulfonamide]
6 | 58.3 | O=S(=O)(NCc1ccccc1S(=O)(=O)N1CCCCC1)c1ccc(OC(F)(F)F)cc1 [Compound 2, N-(2-(piperidin-1-ylsulfonyl)benzyl)-4-(trifluoromethoxy)benzenesulfonamide]
7 | 11.3 | O=S(=O)(NC(CN1CCNCC1)c1ccc(Cl)c(F)c1)c1ccc(OC(F)(F)F)cc1 (stereo not shown) [Compound 258, N-(1-(4-chloro-3-fluorophenyl)-2-(piperazin-1-yl)ethyl)-4-(trifluoromethoxy)benzenesulfonamide]
8 | 26 | O=S(=O)(N[C@H](Cc1cc(F)c(F)cc1F)CC(F)(F)F)c1ccc(OC(F)(F)F)cc1 [Compound 85, (R)—N-(4,4,4-trifluoro-1-(2,4,5-trifluorophenyl)butan-2-yl)-4-(trifluoromethoxy)benzenesulfonamide]
9 | 14.4 | CCCc1ccc(S(=O)(=O)NC(CN(C)C)c2ccc(Cl)c(Cl)c2)cc1 (single isomer, unassigned) [Compound 199, N-(1-(3,4-dichlorophenyl)-2-(dimethylamino)ethyl)-4-propylbenzenesulfonamide]
10 | 51.9 | O=S(=O)(NC(CC1CC1)c1ccccc1)c1ccc(OC(F)(F)F)cc1 (stereo not shown) [Compound 19, N-(2-cyclopropyl-1-phenylethyl)-4-(trifluoromethoxy)benzenesulfonamide]
11 | 43 | CC(C)(C)OC(=O)N1CC(F)(F)CC1CNS(=O)(=O)c1ccc(OC(F)(F)F)cc1 (stereo not shown) [Compound 65, Tert-butyl 4,4-difluoro-2-(((4-(trifluoromethoxy)phenyl)sulfonamido)methyl)pyrrolidine-1-carboxylate]
12 | 50.9 | COCCC(NS(=O)(=O)c1ccc(OC(F)(F)F)cc1)c1ccc(Cl)c(Cl)c1 (stereo not shown) [Compound 35, N-(1-(3,4-dichlorophenyl)-3-methoxypropyl)-4-(trifluoromethoxy)benzenesulfonamide]
13 | 69.9 | CN(C)CC(NS(=O)(=O)c1cccc(F)c1)c1ccc(Cl)c(Cl)c1 (stereo not shown) [Compound 129, N-(1-(3,4-dichlorophenyl)-2-(dimethylamino)ethyl)-3-fluorobenzenesulfonamide]
14 | 46.3 | CN(C)CC(NS(=O)(=O)c1ccc(OC(F)(F)F)cc1)c1cccc(C(F)(F)F)c1 (stereo not shown) [Compound 120, N-(2-(dimethylamino)-1-(3-(trifluoromethyl)phenyl)ethyl)-4-(trifluoromethoxy)benzenesulfonamide]
15 | 42.4 | CCCOC1CCN(CC(NS(=O)(=O)c2ccc(OC(F)(F)F)cc2)c2ccccc2)CC1 (stereo not shown) [Compound 118, N-(1-phenyl-2-(4-propoxypiperidin-1-yl)ethyl)-4-(trifluoromethoxy)benzenesulfonamide]
16 | 15 | CN1CCN(CC(NS(=O)(=O)c2ccc(Oc3ccc(F)cc3)cc2)c2ccc(Cl)c(Cl)c2)CC1 (stereo not shown) [Compound 269, N-(1-(3,4-dichlorophenyl)-2-(4-methylpiperazin-1-yl)ethyl)-4-(4-fluorophenoxy)benzenesulfonamide]
17 | 60 | COC(=O)CC(NS(=O)(=O)c1ccc(OC(F)(F)F)cc1)C1CCCCC1 (stereo not shown) [Compound 37, Methyl 3-cyclohexyl-3-((4-(trifluoromethoxy)phenyl)sulfonamido)propanoate]
18 | 37.3 | CC1(C)CC1(CNS(=O)(=O)c1ccc(OC(F)(F)F)cc1)c1ccccc1 (stereo not shown) [Compound 230, N-((2,2-dimethyl-1-phenylcyclopropyl)methyl)-4-(trifluoromethoxy)benzenesulfonamide]

Row | GI50 [µM] | Compound
19 | 21.1 | CN(C)CC(NS(=O)(=O)c1ccc(Oc2cccc(F)c2)cc1)c1ccc(Cl)c(Cl)c1 (stereo not shown) [Compound 220, N-(1-(3,4-dichlorophenyl)-2-(dimethylamino)ethyl)-4-(3-fluorophenoxy)benzenesulfonamide]
20 | 22.8 | CN(C)CC(NS(=O)(=O)c1ccc(NC2CCC2)cc1)c1ccc(Cl)c(Cl)c1 (stereo not shown) [Compound 252, 4-(cyclobutylamino)-N-(1-(3,4-dichlorophenyl)-2-(dimethylamino)ethyl)benzenesulfonamide]
21 | 1.4 | CN(C)C[C@@H](NS(=O)(=O)c1ccc(OC(F)(F)F)c([N+](=O)[O-])c1)c1ccc(Cl)c(Cl)c1 (single isomer, unassigned) [Compound 203, N-(1-(3,4-dichlorophenyl)-2-(dimethylamino)ethyl)-3-nitro-4-(trifluoromethoxy)benzenesulfonamide]
22 | 29.1 | O=S(=O)(NC(c1cccc(C(F)(F)F)c1)C1CCCCC1)c1ccc(OC(F)(F)F)cc1 (stereo not shown) [Compound 36, N-(cyclohexyl(3-(trifluoromethyl)phenyl)methyl)-4-(trifluoromethoxy)benzenesulfonamide]
23 | 53.7 | O=S(=O)(NC(CN1CCOCC1)c1ccc(Cl)c(Cl)c1)c1ccc(OC(F)(F)F)cc1 (stereo not shown) [Compound 169, N-(1-(3,4-dichlorophenyl)-2-morpholinoethyl)-4-(trifluoromethoxy)benzenesulfonamide]
24 | 31.4 | CN(C)CC(NS(=O)(=O)c1ccc(OC(F)(F)F)c(N)c1)c1ccc(Cl)c(Cl)c1 (stereo not shown) [Compound 176, 3-amino-N-(1-(3,4-dichlorophenyl)-2-(dimethylamino)ethyl)-4-(trifluoromethoxy)benzenesulfonamide]
25 | 25 | CCOC(=O)CC(NS(=O)(=O)c1ccc(OC(F)(F)F)cc1)c1cccc(C(F)(F)F)c1 (stereo not shown) [Compound 94, Ethyl 3-((4-(trifluoromethoxy)phenyl)sulfonamido)-3-(3-(trifluoromethyl)phenyl)propanoate]
26 | 26.6 | CN(C)CC(NS(=O)(=O)c1ccc(Oc2ccc(F)cc2)cc1)c1ccc(Cl)c(Cl)c1 (stereo not shown) [Compound 221, N-(1-(3,4-dichlorophenyl)-2-(dimethylamino)ethyl)-4-(4-fluorophenoxy)benzenesulfonamide]
27 | 25 | CC(NS(=O)(=O)c1ccc(OC(F)(F)F)cc1)C1(c2ccc(Br)cc2)CC1 (stereo not shown) [Compound 70, N-(1-(1-(4-bromophenyl)cyclopropyl)ethyl)-4-(trifluoromethoxy)benzenesulfonamide]
28 | 38 | O=S(=O)(NCC1(CCOCc2ccccc2)CC1)c1ccc(OC(F)(F)F)cc1 [Compound 83, N-((1-(2-(benzyloxy)ethyl)cyclopropyl)methyl)-4-(trifluoromethoxy)benzenesulfonamide]
29 | 22.8 | CN(C)C[C@H](Cc1ccc(Cl)c(Cl)c1)NS(=O)(=O)c1ccc(OC(F)(F)F)cc1 [Compound 247, (S)—N-(1-(3,4-dichlorophenyl)-3-(dimethylamino)propan-2-yl)-4-(trifluoromethoxy)benzenesulfonamide]
30 | 24.7 | CN(C)CC(NS(=O)(=O)c1ccc(OC(F)(F)F)cc1)c1ccc(Cl)c(F)c1 (stereo not shown) [Compound 168, N-(1-(4-chloro-3-fluorophenyl)-2-(dimethylamino)ethyl)-4-(trifluoromethoxy)benzenesulfonamide]
31 | 1.77 | CN(C)CC(NS(=O)(=O)c1ccc(OC(F)(F)F)c([N+](=O)[O-])c1)c1ccc(Cl)cc1 (stereo not shown) [Compound 206, N-(1-(4-chlorophenyl)-2-(dimethylamino)ethyl)-3-nitro-4-(trifluoromethoxy)benzenesulfonamide]
32 | 31 | O=S(=O)(NCCNS(=O)(=O)c1ccc(F)c(Cl)c1)c1ccc(OC(F)(F)F)cc1 [Compound 96, 3-chloro-4-fluoro-N-(2-((4-(trifluoromethoxy)phenyl)sulfonamido)ethyl)benzenesulfonamide]
33 | 47.7 | O=S(=O)(NCC1(c2ccc(Cl)c(Cl)c2)CC1)c1ccc(Oc2ccc(C(F)(F)F)cc2)cc1 [Compound 231, N-((1-(3,4-dichlorophenyl)cyclopropyl)methyl)-4-(4-(trifluoromethyl)phenoxy)benzenesulfonamide]
34 | 9 | O=S(=O)(NC(c1cc(Cl)cc(Cl)c1)C1CCCCC1)c1ccc(OC(F)(F)F)cc1 (stereo not shown) [Compound 69, N-(cyclohexyl(3,5-dichlorophenyl)methyl)-4-(trifluoromethoxy)benzenesulfonamide]
35 | 38 | CCC[C@@H](NS(=O)(=O)c1ccc(OC(F)(F)F)cc1)c1ccc2c(c1)OCO2 [Compound 73, (R)—N-(1-(benzo[d][1,3]dioxol-5-yl)butyl)-4-(trifluoromethoxy)benzenesulfonamide]

Same assay, conditions: LNCaP cell line, 48 hours

Row | GI50 [µM] | Compound
36 | 21.3 | O=S(=O)(NC(c1cc(Cl)cc(Cl)c1)C1CCCCC1)c1ccc(OC(F)(F)F)cc1 (single isomer, unassigned) [Compound 141, N-(cyclohexyl(3,5-dichlorophenyl)methyl)-4-(trifluoromethoxy)benzenesulfonamide]
37 | 15.8 | CN(C)CC(NS(=O)(=O)c1ccc(Oc2ccccc2)cc1)c1ccc(Cl)c(Cl)c1 (single isomer, unassigned) [Compound 171, N-(1-(3,4-dichlorophenyl)-2-(dimethylamino)ethyl)-4-phenoxybenzenesulfonamide]
